Measurements: US11779600B2, “Methods of treating or preventing alzheimer's disease and associated conditions” (CEDARS-SINAI MEDICAL CENTER, priority 2016, dated 2023)

Assays:
[1] = tested on: OPN; experiment: Quantitative IHC of cerebral OPN expression in ADtg mice; format: in vivo, mouse
Method: ADtg mice (10 months old) received subcutaneous injections of GA [also known as Cop-1 and Copaxone®; 100 μg in phosphate-buffered saline (PBS)] or PBS alone (control group) twice a week for 1 week and then once a week for 8 weeks. For evaluation of innate immune infiltration to the brain by flow cytometry, 10-month-old ADtg mice received subcutaneous injections of GA ([…] in PBS) or PBS alone twice a week for 1 week and then once a week for 3 weeks. At the end of the study, all mice were anaesthetized and then perfused with ice-cold PBS with 0.5 mM EDTA, after which their organs were collected and analyzed or fixed in 2.5% paraformaldehyde (Sigma-Aldrich), and cryoprotected with 30% sucrose for further histological analysis. CD115^+ monocytes from mice donors were isolated as previously reported (Koronyo et al., Brain: a journal of neurology 2015,138:2399-2422). […] For microscopic analysis, we used a Carl Zeiss Axio Imager Z1 fluorescence microscope equipped with ApoTome (Carl Zeiss MicroImaging, Inc.). […] The number and area (μm^2) of OPN+ cells, Iba1^+CD45^hi cells, GFAP^+ cells, Thio-S^+ amyloid-βplaques and 4G8^+ amyloid-βplaques were determined by examining four to six coronal sections per mouse at 150-μm intervals over an area covering both the hippocampal and cortical (including entorhinal and cingulate cortex) regions. […]

[2] = tested on: ADtg mice; experiment: Vascular cerebral amyloid angiopathy (CAA) score in ADtg mice; format: in vivo, mouse; details: ADtg mice (FIG. 12)
Method: ADtg mice (10 months old) received subcutaneous injections of GA [also known as Cop-1 and Copaxone®; 100 μg in phosphate-buffered saline (PBS)] or PBS alone (control group) twice a week for 1 week and then once a week for 8 weeks. For evaluation of innate immune infiltration to the brain by flow cytometry, 10-month-old ADtg mice received subcutaneous injections of GA (100 mg in PBS) or PBS alone twice a week for 1 week and then once a week for 3 weeks. At the end of the study, all mice were anaesthetized and then perfused with ice-cold PBS with 0.5 mM EDTA, after which their organs were collected and analyzed or fixed in 2.5% paraformaldehyde (Sigma-Aldrich), and cryoprotected with 30% sucrose for further histological analysis.
Following secondary antibody staining, the brain sections were stained with thioflavin-S(Thio-S, 1% w/v in 70% ethanol) (Sigma-Aldrich) for 10 min at room temperature, washed three times in 70% ethanol, and then washed once in distilled water, for 1 min each.

glatiramer acetate [GA]
cerebral OPN expression in comparison to PBS controls ([1]; quantitative IHC, symptomatic ADtg mice, 2 months treatment (FIG. 11B)): 1.5 times
increase in total OPN expression per Aβ-plaque area ([1]; ratio of total OPN area to plaque area, total brain regions (FIG. 11D)): 2.6 fold
vascular cerebral amyloid angiopathy (CAA) burden [2]: decreases
